Results: patent publication US10487068B2, “Pyridazine derivatives as RORc modulators” (Genentech, Inc., priority 2015, dated 2019)

Target: T1, RORc ligand binding domain (Homo sapiens, UniProt P51449)
T1 sequence (P51449 269-508 limits assumed): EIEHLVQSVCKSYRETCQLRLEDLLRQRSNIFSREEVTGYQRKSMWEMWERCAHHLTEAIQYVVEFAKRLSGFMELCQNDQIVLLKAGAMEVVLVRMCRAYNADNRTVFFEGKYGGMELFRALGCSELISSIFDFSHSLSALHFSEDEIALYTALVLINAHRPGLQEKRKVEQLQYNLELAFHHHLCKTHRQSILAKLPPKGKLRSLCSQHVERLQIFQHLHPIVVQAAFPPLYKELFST
Experiment: In Vitro RORc Ligand Binding Assay
Settings: RORc IC50, radioligand 25-[3H]hydroxycholesterol 6 nM; 0.6 ug/mL RORc receptor; 3 h at 25° C.

Row | Compound | IC50
1 | CC1(C)[C@H]2CC[C@]1(c1ccnc(-c3cccnc3O)n1)c1nnc(-c3c(F)cccc3F)cc12 [Example 385] | 19.7 nM
2 | CC1(C)[C@H]2CC[C@]1(c1ccnc(-c3cc[nH]c(=O)c3)n1)c1nnc(-c3c(F)cccc3F)cc12 [Example 386] | 9.8 nM
3 | Cc1ncn(-c2cc([C@@]34CC[C@@H](c5cc(-c6c(F)cccc6F)nnc53)C4(C)C)cnn2)n1 [Example 389, (5R,8S)-3-(2,6-difluorophenyl)-9,9-dimethyl-8-(6-(3-methyl-1H-1,2,4-triazol-1-yl)pyridazin-4-yl)-5,6,7,8-tetrahydro-5,8-methanocinnoline] | 91.2 nM
4 | Cc1ncnn1-c1cc([C@@]23CC[C@@H](c4cc(-c5c(F)cccc5F)nnc42)C3(C)C)cnn1 [Example 390, (5R,8S)-3-(2,6-difluorophenyl)-9,9-dimethyl-8-(6-(5-methyl-1H-1,2,4-triazol-1-yl)pyridazin-4-yl)-5,6,7,8-tetrahydro-5,8-methanocinnoline] | 317 nM
5 | Cc1cc([C@@]23CC[C@@H](c4cc(-c5c(F)cccc5F)nnc42)C3(C)C)nc(N)n1 [Example 391] | 44.6 nM
6 | CC(C)(O)c1ncc(-c2cncc([C@@]34CC[C@@H](c5cc(-c6c(F)cccc6F)nnc53)C4(C)C)n2)cn1 [Example 394, 2-(5-(6-((5R,8S)-3-(2,6-difluorophenyl)-9,9-dimethyl-5,6,7,8-tetrahydro-5,8-methanocinnolin-8-yl)pyrazin-2-yl)pyrimidin-2-yl)propan-2-ol] | 9.1 nM
7 | Cc1oc(-c2cncc([C@@]34CC[C@@H](c5cc(-c6c(F)cccc6F)nnc53)C4(C)C)n2)nc1C(C)(C)O [Example 397, 2-(2-(6-((5R,8S)-3-(2,6-difluorophenyl)-9,9-dimethyl-5,6,7,8-tetrahydro-5,8-methanocinnolin-8-yl)pyrazin-2-yl)-5-methyloxazol-4-yl)propan-2-ol] | 10.4 nM
8 | CC1(C)[C@H]2CC[C@]1(c1cncc(C3(O)COC3)n1)c1nnc(-c3c(F)cccc3F)cc12 [Example 398, 3-(6-((5R,8S)-3-(2,6-difluorophenyl)-9,9-dimethyl-5,6,7,8-tetrahydro-5,8-methanocinnolin-8-yl)pyrazin-2-yl)oxetan-3-ol] | 12.5 nM
9 | CC(C)(O)c1cnc(-c2cncc([C@@]34CC[C@@H](c5cc(-c6c(F)cccc6F)nnc53)C4(C)C)n2)cn1 [Example 400, 2-(6′-((5R,8S)-3-(2,6-difluorophenyl)-9,9-dimethyl-5,6,7,8-tetrahydro-5,8-methanocinnolin-8-yl)-[2,2′-bipyrazin]-5-yl)propan-2-ol] | 8.7 nM
10 | CC1(C)[C@H]2CC[C@]1(c1cncc(-c3cnc(=O)[nH]c3)n1)c1nnc(-c3c(F)cccc3F)cc12 [Example 401, 5-(6-((5R,8S)-3-(2,6-difluorophenyl)-9,9-dimethyl-5,6,7,8-tetrahydro-5,8-methanocinnolin-8-yl)pyrazin-2-yl)pyrimidin-2(1H)-one] | 14.7 nM
11 | CC1(C)[C@H]2CC[C@]1(c1ccnc(-c3ccnc(C(N)=O)c3)n1)c1nnc(-c3c(F)cccc3F)cc12 [Example 404] | 9.2 nM

These reach a lower IC50. Values come first.

Row | IC50 | Compound
12 | 8.2 nM | CC[C@H](O)c1coc(-c2cncc([C@@]34CC[C@@H](c5cc(-c6c(F)cccc6F)nnc53)C4(C)C)n2)n1 [Example 383, (S)-1-(2-(6-((5R,8S)-3-(2,6-difluorophenyl)-9,9-dimethyl-5,6,7,8-tetrahydro-5,8-methanocinnolin-8-yl)pyrazin-2-yl)oxazol-4-yl)propan-1-ol]
13 | 8.1 nM | CC1(C)[C@H]2CC[C@]1(c1cncc(-c3ccc(OCC(N)=O)nc3)n1)c1nnc(-c3c(F)cccc3F)cc12 [Example 402, 2-((5-(6-((5R,8S)-3-(2,6-difluorophenyl)-9,9-dimethyl-5,6,7,8-tetrahydro-5,8-methanocinnolin-8-yl)pyrazin-2-yl)pyridin-2-yl)oxy)acetamide]
14 | 8 nM | CC(C)(O)c1coc(-c2cncc([C@]34CC[C@H](c5cc(-c6c(F)cccc6F)nnc53)C4(C)C)n2)n1 [Example 387, 2-(2-(6-((5S,8R)-3-(2,6-difluorophenyl)-9,9-dimethyl-5,6,7,8-tetrahydro-5,8-methanocinnolin-8-yl)pyrazin-2-yl)oxazol-4-yl)propan-2-ol]
15 | 7.7 nM | CC1(C)[C@H]2CC[C@]1(c1cncc(-c3cnn(CC(N)=O)c3)n1)c1nnc(-c3c(F)cccc3F)cc12 [Example 405, 2-(4-(6-((5R,8S)-3-(2,6-difluorophenyl)-9,9-dimethyl-5,6,7,8-tetrahydro-5,8-methanocinnolin-8-yl)pyrazin-2-yl)-1H-pyrazol-1-yl)acetamide]
16 | 7.6 nM | CC(C)(O)Cn1cc(-c2cncc([C@@]34CC[C@@H](c5cc(-c6c(F)cccc6F)nnc53)C4(C)C)n2)cn1 [Example 406, 1-(4-(6-((5R,8S)-3-(2,6-difluorophenyl)-9,9-dimethyl-5,6,7,8-tetrahydro-5,8-methanocinnolin-8-yl)pyrazin-2-yl)-1H-pyrazol-1-yl)-2-methylpropan-2-ol]
17 | 7.3 nM | CC(C)(O)c1ncc(-c2nccc([C@@]34CC[C@@H](c5cc(-c6c(F)cccc6F)nnc53)C4(C)C)n2)cn1 [Example 388]
18 | 6.9 nM | CC1(C)[C@H]2CC[C@]1(c1cncc(-c3nc(CC(N)=O)co3)n1)c1nnc(-c3c(F)cccc3F)cc12 [Example 384, 2-(2-(6-((5R,8S)-3-(2,6-difluorophenyl)-9,9-dimethyl-5,6,7,8-tetrahydro-5,8-methanocinnolin-8-yl)pyrazin-2-yl)oxazol-4-yl)acetamide]
19 | 6.8 nM | CC1(C)[C@H]2CC[C@]1(c1ccnc(-c3ccc(N)nc3)n1)c1nnc(-c3c(F)cccc3F)cc12 [Example 403]
20 | 6.4 nM | CC1(C)[C@H]2CC[C@]1(c1cncc(-c3cn[nH]n3)n1)c1nnc(-c3c(F)cccc3F)cc12 [Example 399]
21 | 5.6 nM | CC(C)(O)c1cc(-c2cncc([C@@]34CC[C@@H](c5cc(-c6c(F)cccc6F)nnc53)C4(C)C)n2)ccn1 [Example 393, 2-(4-(6-((5R,8S)-3-(2,6-difluorophenyl)-9,9-dimethyl-5,6,7,8-tetrahydro-5,8-methanocinnolin-8-yl)pyrazin-2-yl)pyridin-2-yl)propan-2-ol]
22 | 5.5 nM | CC(C)(O)c1ccc(-c2cncc([C@@]34CC[C@@H](c5cc(-c6c(F)cccc6F)nnc53)C4(C)C)n2)cn1 [Example 392, 2-(5-(6-((5R,8S)-3-(2,6-difluorophenyl)-9,9-dimethyl-5,6,7,8-tetrahydro-5,8-methanocinnolin-8-yl)pyrazin-2-yl)pyridin-2-yl)propan-2-ol]
23 | 4.8 nM | CC(C)(O)c1coc(-c2cncc([C@@]34CC[C@@H](c5cc(-c6ccccc6F)nnc53)C4(C)C)n2)n1 [Example 396, 2-(2-(6-((5R,8S)-3-(2-fluorophenyl)-9,9-dimethyl-5,6,7,8-tetrahydro-5,8-methanocinnolin-8-yl)pyrazin-2-yl)oxazol-4-yl)propan-2-ol]
24 | 4.3 nM | CC1(C)[C@H]2CC[C@]1(c1cncc(-c3ccc(=O)[nH]c3)n1)c1nnc(-c3c(F)cccc3F)cc12 [Example 395, 5-(6-((5R,8S)-3-(2,6-difluorophenyl)-9,9-dimethyl-5,6,7,8-tetrahydro-5,8-methanocinnolin-8-yl)pyrazin-2-yl)pyridin-2(1H)-one]
